1 compound from PubChem BioAssay AID743300 (The Scripps Research Institute Molecular Screening Center, 2014) can be followed below.

This test addresses methionyl-tRNA synthetase (Trypanosoma brucei brucei). Briefly: T. brucei MetRS inhibitors, late-stage follow-up, biochemical, luminescence, dose response, round 2 (AID 743300). The conditions noted are these: T. brucei MetRS enzyme, luminescence read-out.

Each structure is given as a SMILES string.

As usually defined, the IC50 is the concentration at which inhibition is half-maximal. Regarding `CCN(CC)C(=O)C(=O)c1cn(CC(=O)Nc2cccc(C(F)(F)F)c2)c2ccccc12`, the IC50 was 99.5 nM.
